{"source": "patent US20080146669A1", "about": "“Novel Chloride Channel Pore Openers” (THE UAB RESEARCH FOUNDATION, priority 2005, published 2008)", "key": {"ΔF508-CFTR": {"molecular_target": "T1, ΔF508-CFTR (Homo sapiens, UniProt P13569, DEL508-508)", "T1 construct": "expressed in transfected cells; host or cells: HEK-293T, transient; grown at 28° C. for 24 hrs", "T1 sequence (P13569 with tags, fused parts or gaps DEL508-508)": "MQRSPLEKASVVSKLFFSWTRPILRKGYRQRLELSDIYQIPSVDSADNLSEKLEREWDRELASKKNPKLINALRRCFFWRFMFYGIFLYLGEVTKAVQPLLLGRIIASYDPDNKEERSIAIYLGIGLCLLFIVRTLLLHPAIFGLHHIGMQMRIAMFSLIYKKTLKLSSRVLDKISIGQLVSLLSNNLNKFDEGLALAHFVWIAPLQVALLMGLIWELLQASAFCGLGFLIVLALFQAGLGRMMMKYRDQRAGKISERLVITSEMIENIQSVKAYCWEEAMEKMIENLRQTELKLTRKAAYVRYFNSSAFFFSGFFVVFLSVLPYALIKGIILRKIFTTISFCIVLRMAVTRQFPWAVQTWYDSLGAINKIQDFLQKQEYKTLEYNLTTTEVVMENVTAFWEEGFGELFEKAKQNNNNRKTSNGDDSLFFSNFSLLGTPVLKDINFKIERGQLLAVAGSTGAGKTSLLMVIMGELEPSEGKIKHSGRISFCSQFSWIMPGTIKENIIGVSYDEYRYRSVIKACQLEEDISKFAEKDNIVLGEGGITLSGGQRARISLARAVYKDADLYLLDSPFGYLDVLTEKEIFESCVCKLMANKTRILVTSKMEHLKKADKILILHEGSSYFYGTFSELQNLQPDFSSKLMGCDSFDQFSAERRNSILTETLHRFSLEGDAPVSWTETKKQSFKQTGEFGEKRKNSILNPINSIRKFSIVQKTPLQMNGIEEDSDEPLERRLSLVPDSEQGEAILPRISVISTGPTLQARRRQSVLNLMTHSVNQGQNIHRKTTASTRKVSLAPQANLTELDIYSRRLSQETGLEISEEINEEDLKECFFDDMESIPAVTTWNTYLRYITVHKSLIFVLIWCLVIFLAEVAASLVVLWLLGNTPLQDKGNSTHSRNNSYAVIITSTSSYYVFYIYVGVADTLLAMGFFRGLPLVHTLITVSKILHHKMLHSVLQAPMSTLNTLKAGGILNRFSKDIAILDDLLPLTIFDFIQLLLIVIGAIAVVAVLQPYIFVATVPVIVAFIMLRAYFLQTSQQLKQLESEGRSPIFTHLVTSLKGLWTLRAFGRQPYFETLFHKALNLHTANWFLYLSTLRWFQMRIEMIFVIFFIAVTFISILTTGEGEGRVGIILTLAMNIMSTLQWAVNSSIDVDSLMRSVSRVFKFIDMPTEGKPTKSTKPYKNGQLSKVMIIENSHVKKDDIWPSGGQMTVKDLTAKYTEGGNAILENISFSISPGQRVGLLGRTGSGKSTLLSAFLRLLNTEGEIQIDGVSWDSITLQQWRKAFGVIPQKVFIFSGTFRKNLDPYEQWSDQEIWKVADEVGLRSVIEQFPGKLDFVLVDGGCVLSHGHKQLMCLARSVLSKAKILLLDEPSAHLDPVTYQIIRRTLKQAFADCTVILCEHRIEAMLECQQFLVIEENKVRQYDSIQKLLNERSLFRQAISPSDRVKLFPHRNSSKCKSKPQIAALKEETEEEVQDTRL", "test": "Macroscopic currents in excised patches from temperature-corrected HEK-293T cells expressing ΔF508-CFTR", "format": "biochemical", "experimental": "(§1) Cell culture DNA constructs and transfections. Baby hamster kidney (BHK) cells stably expressing wild type human CFTR (BHK-CFTR) were provided by J. Hanrahan (McGill University). BHK-CFTR cells were cultured in Dulbecco's modified Eagle's medium (DMEM (Mediatech)) supplemented with 5% fetal bovine serum (FBS) and 1 mM penicillin-streptomycin. The growth media for the BHK-CFTR cells also contained 0.5 mM methotrexate to maintain selection for CFTR-expressing cells (22). HEK-293T cells were transiently transfected with wild-type or mutant CFTR cDNA using the Lipofectamine transfection kit following manufacturer's recommendations (Invitrogen, Corp). HEK-293T cells were cultured in DMEM. All cells were grown on plastic coverslips for patch clamp recording and were used 2-3 days post-seeding. Electrophysiology and data analysis. Macroscopic and multi-channel currents were recorded in the excised, inside-out configuration. Patch pipettes were pulled from Corning 8161 glass to tip resistances of […] (macroscopic recordings) or 8-10 mOhm (micropatch studies). CFTR channels were activated following patch excision by exposure of the cytoplasmic face of the patch to catalytic subunit of protein kinase A (PKA; 110 U/ml; Promega) and Mg-ATP (1.5 mM). CFTR currents were recorded in symmetrical solution containing (in mM): 140 N-methyl-D-glucaniine-Cl, 3 MgCl2, 1 EGTA and 10 TES. The pH was adjusted to 7.3. Macroscopic currents were evoked using a ramp protocol from +80 to −80 mV with a 10 sec time period. Patches were held at −80 mV or +80 mV for micropatch (multichannel) recordings. All patch clamp experiments were performed at 21-23° C. Signals from macroscopic and single channel recording were filtered at 20 and 200 Hz, respectively. Data acquisition and analysis were performed using pCLAMP8 and pCLAMP9 software (Axon Instruments). Curve fitting for kinetic analysis was performed using Microcal Origin software. Averaged data are presented as mean +/−SEM. Statistical comparisons were made by performing unpaired t-tests unless otherwise indicated. Ussing Chamber Experiments-CFBE41o epithelial cells stably transfected with ΔF508-CFTR or transiently transfected with wild-type CFTR were cultured as electrically resistive monolayers and assayed in Ussing chambers as described (16). ΔF508-CFTR-expressing monolayers were grown at 27° C. for 2-3 days to enhance the surface expression of this temperature-sensitive mutant. A serosal-to-mucosal Cl^− gradient (120 to 1.2 mM) was imposed, followed by amiloride addition (100 μM) to block Na^+ currents. Compounds were added to both chambers at the indicated concentrations. A 3-mV voltage pulse was imposed every 100 s to monitor transepithelial resistance."}, "[1]": {"test_system": "parental CFBE41o- monolayers", "test": "Ussing chamber transepithelial currents, parental CFBE41o- monolayers", "format": "cell-based, human", "details": "n=6, data not shown", "experimental": "(§2) Cell culture DNA constructs and transfections. Baby hamster kidney (BHK) cells stably expressing wild type human CFTR (BHK-CFTR) were provided by J. Hanrahan (McGill University). BHK-CFTR cells were cultured in Dulbecco's modified Eagle's medium (DMEM (Mediatech)) supplemented with 5% fetal bovine serum (FBS) and 1 mM penicillin-streptomycin. The growth media for the BHK-CFTR cells also contained 0.5 mM methotrexate to maintain selection for CFTR-expressing cells (22). HEK-293T cells were transiently transfected with wild-type or mutant CFTR cDNA using the Lipofectamine transfection kit following manufacturer's recommendations (Invitrogen, Corp). HEK-293T cells were cultured in DMEM. All cells were grown on plastic coverslips for patch clamp recording and were used 2-3 days post-seeding. Electrophysiology and data analysis. Macroscopic and multi-channel currents were recorded in the excised, inside-out configuration. Patch pipettes were pulled from Corning 8161 glass to tip resistances of […] (macroscopic recordings) or 8-10 mOhm (micropatch studies). CFTR channels were activated following patch excision by exposure of the cytoplasmic face of the patch to catalytic subunit of protein kinase A (PKA; 110 U/ml; Promega) and Mg-ATP (1.5 mM). CFTR currents were recorded in symmetrical solution containing (in mM): 140 N-methyl-D-glucaniine-Cl, 3 MgCl2, 1 EGTA and 10 TES. […]"}, "wild-type CFTR [2]": {"molecular_target": "T2, wild-type CFTR (Homo sapiens, UniProt P13569)", "T2 sequence (P13569 whole entry)": "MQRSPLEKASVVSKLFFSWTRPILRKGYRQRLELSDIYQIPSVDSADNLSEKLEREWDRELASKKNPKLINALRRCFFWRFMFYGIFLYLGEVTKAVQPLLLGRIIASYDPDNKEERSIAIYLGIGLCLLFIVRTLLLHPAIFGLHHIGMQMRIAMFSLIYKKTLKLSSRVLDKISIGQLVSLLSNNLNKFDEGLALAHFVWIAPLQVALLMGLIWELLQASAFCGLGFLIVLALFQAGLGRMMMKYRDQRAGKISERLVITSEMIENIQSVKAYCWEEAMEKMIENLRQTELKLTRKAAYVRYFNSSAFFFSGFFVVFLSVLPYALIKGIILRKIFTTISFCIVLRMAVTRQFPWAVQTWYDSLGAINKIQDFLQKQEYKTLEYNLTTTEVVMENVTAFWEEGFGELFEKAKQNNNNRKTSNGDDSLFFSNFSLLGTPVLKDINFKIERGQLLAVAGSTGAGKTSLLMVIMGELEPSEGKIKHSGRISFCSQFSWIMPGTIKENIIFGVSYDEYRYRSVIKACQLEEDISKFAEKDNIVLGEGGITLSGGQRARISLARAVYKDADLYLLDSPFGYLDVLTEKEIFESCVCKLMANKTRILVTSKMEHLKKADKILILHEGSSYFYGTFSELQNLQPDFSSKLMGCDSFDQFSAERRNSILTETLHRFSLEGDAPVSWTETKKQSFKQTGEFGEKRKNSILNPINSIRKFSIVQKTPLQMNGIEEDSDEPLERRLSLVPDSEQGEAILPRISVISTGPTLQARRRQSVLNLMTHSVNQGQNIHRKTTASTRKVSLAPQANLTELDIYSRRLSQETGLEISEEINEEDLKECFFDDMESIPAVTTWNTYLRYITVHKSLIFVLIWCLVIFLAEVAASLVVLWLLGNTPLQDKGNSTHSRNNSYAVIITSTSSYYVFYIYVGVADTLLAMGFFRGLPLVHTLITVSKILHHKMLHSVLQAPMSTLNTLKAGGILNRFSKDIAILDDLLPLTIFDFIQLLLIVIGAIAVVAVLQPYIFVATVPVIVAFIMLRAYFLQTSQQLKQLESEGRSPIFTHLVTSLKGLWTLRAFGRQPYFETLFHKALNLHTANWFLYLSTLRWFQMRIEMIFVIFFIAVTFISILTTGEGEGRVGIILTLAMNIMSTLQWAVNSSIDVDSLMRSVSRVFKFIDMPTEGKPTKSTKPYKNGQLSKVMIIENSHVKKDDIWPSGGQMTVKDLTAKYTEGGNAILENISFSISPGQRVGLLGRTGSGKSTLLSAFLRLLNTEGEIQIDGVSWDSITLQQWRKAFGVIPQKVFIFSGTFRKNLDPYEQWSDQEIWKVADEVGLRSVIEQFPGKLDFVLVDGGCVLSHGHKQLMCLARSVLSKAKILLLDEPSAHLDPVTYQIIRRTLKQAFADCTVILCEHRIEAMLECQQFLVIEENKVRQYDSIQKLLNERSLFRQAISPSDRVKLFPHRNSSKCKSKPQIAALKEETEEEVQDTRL", "test": "Ussing chamber transepithelial chloride currents, wild type CFTR-expressing CFBE41o- monolayers", "format": "cell-based", "set-up": "expressed in transfected cells; host or cells: HEK-293T, transient (Lipofectamine)", "details": "120 nM to 12 μM", "experimental": "as §2"}, "wild-type CFTR [3]": {"molecular_target": "T2, wild-type CFTR", "test": "Macroscopic currents in excised inside-out patches from BHK-CFTR cells", "format": "biochemical", "set-up": "expressed in transfected cells; provided by J. Hanrahan (McGill University)", "details": "for EC50: moderately phosphorylated wild-type channels, normalized to peak current at 10 μM, read-out: EC50 of CFTR current stimulation (titration)", "experimental": "as §1, with “CFTR channels were activated following patch excision by exposure of the cytoplasmic face of the patch to catalytic subunit of protein kinase A (PKA; 110 U/ml; Promega) and Mg-ATP (1.5 mM).” left out"}, "CFTR-minus cells": {"test_system": "CFTR-minus cells", "test": "Currents across patches excised from CFTR-minus (untransfected) cells", "format": "biochemical", "experimental": "as §1"}, "wild-type CFTR [4]": {"molecular_target": "T2, wild-type CFTR", "test": "Micropatch (multichannel) recording of BHK-CFTR patches, opening rate and Po", "format": "biochemical", "set-up": "expressed in transfected cells; provided by J. Hanrahan (McGill University)", "experimental": "as §1, with “CFTR channels were activated following patch excision by exposure of the cytoplasmic face of the patch to catalytic subunit of protein kinase A (PKA; 110 U/ml; Promega) and Mg-ATP (1.5 mM).” left out, “Ussing Chamber Experiments-CFBE41o epithelial cells stably transfected with ΔF508-CFTR or transiently transfected with wild-type CFTR were cultured as electrically resistive monolayers and assayed in Ussing chambers as described (16). ΔF508-CFTR-expressing monolayers were grown at 27° C. for 2-3 days to enhance the surface expression of this temperature-sensitive mutant. A serosal-to-mucosal Cl^− gradient (120 to 1.2 mM) was imposed, followed by amiloride addition (100 μM) to block Na^+ currents. Compounds were added to both chambers at the indicated concentrations. A 3-mV voltage pulse was imposed every 100 s to monitor transepithelial resistance.” left out"}, "[5]": {"details": "10 μM, poorly phosphorylated, −80 mV, best guess estimate, mean±S.E., n=7"}}, "note": "Read-outs that look alike come from different tables or passages of the source."}
{"smiles": "NC(=O)c1cc([N+](=O)[O-])ccc1NCCCc1ccccc1", "note": "[NPPB-Am]", "values": [{"measurement": "increase in ΔF508-CFTR macroscopic currents", "setting": "ΔF508-CFTR; 10 μM, 1.5 mM Mg-ATP and 110 U/ml PKA", "value": "10-15 fold"}, {"measurement": "effect on ΔF508-CFTR macroscopic currents", "setting": "ΔF508-CFTR; 10 μM, high PKA 110 U/ml without PKI", "value": "dramatically stimulated"}, {"measurement": "effect on ΔF508-CFTR channel activity in the absence of active kinase", "setting": "ΔF508-CFTR; added after PKI", "value": "markedly stimulated"}, {"measurement": "increase in transepithelial current", "setting": "[1]", "value": "1.1+/−2.7 μA/cm^2"}, {"measurement": "effect on transepithelial currents without cAMP agonist", "setting": "wild-type CFTR [2]", "value": "stimulated the transepithelial currents"}, {"measurement": "relative stimulation as a function of CFTR phosphorylation", "setting": "wild-type CFTR [3]", "value": "greater relative stimulatory effect on poorly phosphorylated CFTR channels"}, {"measurement": "time course and reversibility of the stimulation of CFTR current", "setting": "wild-type CFTR [3]", "value": "rapid, stable and quickly reversible upon wash out"}, {"measurement": "voltage dependence of the stimulation of CFTR current", "setting": "wild-type CFTR [3]", "value": "voltage-independent with no evidence for CFTR inhibition at any holding potential"}, {"measurement": "increase of the current", "setting": "wild-type CFTR [3]; 125 nM, mean titration data, n=8", "value": "approximately 20%"}, {"measurement": "increase of the current", "setting": "wild-type CFTR [3]; 250 nM, representative patch", "value": 25, "unit": "%"}, {"measurement": "effect on currents of poorly phosphorylated or thiolated CFTR channels", "setting": "wild-type CFTR [3]; 10 μM", "value": "effectively stimulated the currents"}, {"measurement": "effect on currents of moderately phosphorylated wild-type channels", "setting": "wild-type CFTR [3]; 10 μM, high PKA followed by PKI", "value": "stimulates currents in both directions"}, {"measurement": "effect on the Mg-ATP sensitivity of CFTR activity", "setting": "wild-type CFTR [3]; Mg-ATP titration with and without compound, data not shown", "value": "no obvious effect"}, {"measurement": "EC50", "setting": "wild-type CFTR [3]; listed as NPPB-AM", "value": 960, "unit": "nM"}, {"measurement": "EC50", "setting": "wild-type CFTR [3]", "value": 710, "unit": "nM"}, {"measurement": "lowest concentration with detectable increases in CFTR currents", "setting": "wild-type CFTR [3]; titration experiments", "value": 250, "unit": "nM"}, {"measurement": "effect on currents across membrane patches excised from CFTR-minus cells", "setting": "CFTR-minus cells; data not shown", "value": "no effect"}, {"measurement": "effect on currents across a patch from untransfected HEK-293T cells", "setting": "CFTR-minus cells; untransfected HEK-293T", "value": "neither"}, {"measurement": "mean single channel opening rate, post compound", "setting": "wild-type CFTR [4]; [5]", "value": "1.07±0.29", "unit": "openings/s/channel"}, {"measurement": "single channel Po, post compound", "setting": "wild-type CFTR [4]; [5]", "value": "0.26±0.06"}, {"measurement": "effect on opening rates and mean single channel open probabilities (Pos)", "setting": "wild-type CFTR [4]; poorly phosphorylated (2 U/ml PKA), fewer than 10 channels per patch", "value": "markedly increased the opening rates and mean single channel open probabilities"}]}
